Measured values as given in the supplement of paper PMC10307832.

Assays:
Assay in all cases: relative viability (nuclei count vs DMSO), 5 days (fraction); higher = more cells survive
Bemcentinib + Trametinib = compound: Nc1nc(Nc2ccc3c(c2)CC[C@@H](N2CCCC2)CC3)nn1-c1cc2c(nn1)-c1ccccc1CCC2 [Bemcentinib] + CC(=O)Nc1cccc(-n2c(=O)n(C3CC3)c(=O)c3c(Nc4ccc(I)cc4F)n(C)c(=O)c(C)c32)c1 [Trametinib] (partner 0.02 µM)
In short: (§1)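 Lung cancer cell lines were pin-tool dosed in 1536-well plates on the day after seeding, with either a lone drug or a fixed anchor-drug dose plus five library-drug doses (not always all listed) in √10 steps. Nuclei were counted on 4× images after 5 days. Relative viability is the ratio of treated-well to vehicle-well nuclei counts, with each value a median of duplicate plates.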

[1] = compound: Nc1nc(Nc2ccc3c(c2)CC[C@@H](N2CCCC2)CC3)nn1-c1cc2c(nn1)-c1ccccc1CCC2 [Bemcentinib] + CC(=O)c1c(C)c2cnc(Nc3ccc(N4CCNCC4)cn3)nc2n(C2CCCC2)c1=O [Palbociclib] (partner 0.5 µM)
In short: as §1

Bemcentinib + Crizotinib = compound: Nc1nc(Nc2ccc3c(c2)CC[C@@H](N2CCCC2)CC3)nn1-c1cc2c(nn1)-c1ccccc1CCC2 [Bemcentinib] + C[C@@H](Oc1cc(-c2cnn(C3CCNCC3)c2)cnc1N)c1c(Cl)ccc(F)c1Cl [Crizotinib] (partner 1 µM)
In short: as §1

[2] = compound: CC1=CC=C(C=C1)C(=O)CN2C3=C(CCCC3)SC2=N [Pifithrin_alpha] + CS(=O)(=O)CCNCc1ccc(-c2ccc3ncnc(Nc4ccc(OCc5cccc(F)c5)c(Cl)c4)c3c2)o1 [Lapatinib] (partner 2 µM)
In short: as §1

Row | Cell Line | relative viability (Bemcentinib + Trametinib; first compound 0.04 µM) | relative viability (Bemcentinib + Trametinib; first compound 0.1265 µM) | relative viability (Bemcentinib + Trametinib; first compound 0.4 µM) | relative viability (Bemcentinib + Trametinib; first compound 1.265 µM) | relative viability (Bemcentinib + Trametinib; first compound 4 µM) | relative viability ([1]; first compound 0.04 µM) | relative viability ([1]; first compound 0.1265 µM) | relative viability ([1]; first compound 0.4 µM) | relative viability ([1]; first compound 1.265 µM) | relative viability ([1]; first compound 4 µM) | relative viability (Bemcentinib + Crizotinib; first compound 0.04 µM) | relative viability (Bemcentinib + Crizotinib; first compound 0.1265 µM) | relative viability (Bemcentinib + Crizotinib; first compound 0.4 µM) | relative viability (Bemcentinib + Crizotinib; first compound 1.265 µM) | relative viability (Bemcentinib + Crizotinib; first compound 4 µM) | relative viability ([2]; first compound 1 µM) | relative viability ([2]; first compound 3.162 µM) | relative viability ([2]; first compound 10 µM) | relative viability ([2]; first compound 31.62 µM) | relative viability ([2]; first compound 100 µM)
1 | NCI-H2085 | 0.538 | 0.667 | 0.526 | 0.444 | 0.516 | 0.456 | 0.449 | 0.44 | 0.46 | 0.47 | 0.836 | 0.802 | 0.753 | 0.803 | 0.919 | 0.626 | 0.69 | 0.691 | 0.667 | 0.661
2 | BEN | 1.01 | 1.18 | 1.21 | 1.04 | 1.03 | 0.488 | 0.498 | 0.464 | 0.432 | 0.514 | 0.936 | 1.16 | 0.935 | 0.845 | 0.775 | 0.522 | 0.769 | 0.686 | 0.733 | 0.873
3 | NCI-H520 | 0.723 | 0.859 | 0.706 | 0.713 | 0.733 | 0.235 | 0.198 | 0.265 | 0.221 | 0.352 | 0.53 | 0.823 | 0.912 | 0.971 | 0.686 | 1.01 | 0.978 | 0.88 | 0.694 | 0.878
4 | NCI-H1975 | 0.282 | 0.399 | 0.365 | 0.36 | 0.344 | 0.561 | 0.827 | 0.665 | 0.567 | 0.746 | 1.07 | 1.23 | 1.07 | 1.1 | 1.17 | 0.895 | 0.544 | 0.655 | 0.489 | 0.761
5 | NCI-H1355 | 0.407 | 0.414 | 0.462 | 0.405 | 0.509 | 0.396 | 0.403 | 0.419 | 0.415 | 0.437 | 1.08 | 1.18 | 1.07 | 1.14 | 1.17 | 0.765 | 0.756 | 0.699 | 0.616 | 0.702
6 | H3255 | – | 0.749 | 0.696 | 0.674 | 0.706 | 0.283 | 0.305 | 0.297 | 0.275 | 0.334 | 0.867 | 0.938 | 0.914 | 0.878 | 0.888 | 0.13 | 0.208 | 0.267 | 0.244 | 0.192
7 | NCI-H1915 | 0.291 | 0.29 | 0.283 | 0.293 | 0.305 | 0.532 | 0.506 | 0.521 | 0.512 | 0.527 | 0.957 | 1.03 | 0.911 | 0.96 | 0.989 | 0.923 | 1.15 | 0.883 | – | 1.13
8 | NCI-H2023 | 0.564 | 0.675 | 0.572 | 0.762 | 0.657 | 0.416 | 0.398 | 0.388 | 0.437 | 0.425 | 0.648 | 0.653 | 0.723 | 0.6 | 0.599 | 0.274 | 0.737 | 0.638 | 0.291 | 0.589
